Test results from BindingDB's records for doi:10.1080/14756360310001640913 (Saarland University, 2004).

Molecular target: T1, Steroid 17-alpha-hydroxylase/17,20 lyase (Homo sapiens, UniProt P05093)
T1 sequence (P05093 whole entry): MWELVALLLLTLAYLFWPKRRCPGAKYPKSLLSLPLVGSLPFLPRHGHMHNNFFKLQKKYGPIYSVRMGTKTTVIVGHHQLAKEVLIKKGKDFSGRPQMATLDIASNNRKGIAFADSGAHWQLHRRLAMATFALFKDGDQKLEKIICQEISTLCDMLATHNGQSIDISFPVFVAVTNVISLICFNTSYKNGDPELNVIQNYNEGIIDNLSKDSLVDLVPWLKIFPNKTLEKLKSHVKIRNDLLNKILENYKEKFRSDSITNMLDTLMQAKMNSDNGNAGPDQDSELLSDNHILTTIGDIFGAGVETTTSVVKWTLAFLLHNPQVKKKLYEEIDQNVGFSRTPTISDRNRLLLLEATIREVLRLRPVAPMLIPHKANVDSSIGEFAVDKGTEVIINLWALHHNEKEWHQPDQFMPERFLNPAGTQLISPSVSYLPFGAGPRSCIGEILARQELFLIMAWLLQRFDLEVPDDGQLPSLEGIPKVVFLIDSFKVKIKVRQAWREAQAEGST
Test: CYP17 Assay
Conditions: pH 7.4; 37 °C

Row | Structure (SMILES) | IC50
1 | COc1cc2c(cc1O)C(C)=C(Cc1cnc[nH]1)CC2 [dihydronaphthalene derivative] | 1100 nM
2 | COc1ccc2c(c1)CCC(Cc1cnc[nH]1)=C2C | 110 nM
3 | Oc1ccc(-c2ccc(Cn3ccnc3)cc2)cc1O [4-[4-(1H-imidazol-1-ylmethyl)phenyl]benzene-1,2-diol] | 120 nM
4 | COc1cc2c(cc1OC)C(C)=C(Cc1cnc[nH]1)CC2 [5-[(6,7-dimethoxy-1-methyl-3,4-dihydronaphthalen-2-yl)methyl]-1H-imidazole] | 490 nM
